Experimental data: patent US20240316079A1, “USE OF AKR1C3-ACTIVATED COMPOUND” (OBI PHARMA, INC., priority 2021, published 2024)
Like-named read-outs stand apart in the source and are kept apart here.

How the values were obtained:
[1] = target: T1, recombinant human AKR1C3 (Homo sapiens, UniProt P42330); assay: Kinetic analysis of AKR1C3 towards various substrates (NADPH absorbance 340 nm); type: biochemical; conditions: substrate of AKR1C3, 25° C., triplicate
T1 construct: purchased Abcam (Cambridge, MA)
T1 sequence (P42330 1-323): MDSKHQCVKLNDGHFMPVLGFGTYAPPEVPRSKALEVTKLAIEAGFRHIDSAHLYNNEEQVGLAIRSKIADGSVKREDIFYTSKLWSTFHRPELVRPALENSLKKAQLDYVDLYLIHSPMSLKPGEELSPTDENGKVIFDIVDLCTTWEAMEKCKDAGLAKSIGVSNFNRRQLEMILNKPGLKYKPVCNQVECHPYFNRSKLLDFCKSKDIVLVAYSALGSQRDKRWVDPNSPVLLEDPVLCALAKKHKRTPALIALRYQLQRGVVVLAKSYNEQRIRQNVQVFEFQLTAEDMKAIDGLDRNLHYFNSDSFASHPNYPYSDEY
Experimental: The reaction was incubated at 25° C. and terminated at various time points by adding acetonitrile and methanol (at a ratio of 9 to 1) and subjected for LC-MS/MS analysis. For enzyme kinetic analysis, the activity was determined with a SpectraMax M2^e spectrophotometer (Molecular Devices, LLC, San Jose, CA) by measuring the decrease in absorbance of the NADPH at 340 nm (E=6270 M^−1 cm^−1). After the initiation of the reaction by addition of substrates, the reactions were monitored at 30 s intervals at 25° C. The non-substrate reaction rate was also monitored as background and its slope was used to determine the initial velocity of the reaction. The kinetic data reported were the average of triplicate measurements.

[2] = tested on: H460 cells; assay: Cytotoxicity in H460 cells in the absence or presence of AKR1C3 inhibitor 3021; conditions: Homo sapiens, NCI-H460, 2 h, read-out: IC50 (cytotoxicity)
Experimental: Exponentially growing cells were seeded 24 hours before the addition of test compounds. After addition of test compounds, the plates were incubated for the indicated hours at 37° C. in a standard tissue culture incubator. At the end of the experiment, the viable cells were detected using either a CellTiter Glo (CTG) assay kit or AlamarBlue^(28,29). […] For 3021 experiments, cells were pretreated with 3 μM of 3021 for 2 h prior to compound treatment under air. IC50 was calculated as described above.

[3] = tested on: HepG2 orthotopic xenograft; type: in vivo, mice; conditions: sorafenib 30 mg/kg orally, QD×5×7 cycles; no statistical significance
Experimental: (§1) In vivo anti-tumor activity of 3424 was evaluated using GFP-expressing cancer cell lines in an orthotopic liver cancer model (HepG2) and a subcutaneous lung cancer model (H460) CDX models at AntiCancer, Inc (Beijing, China). Female athymic nude mice (6 weeks; BALB/c-nu, Beijing HFK Bioscience Co., Ltd., Beijing, China) were used in the studies. Each mouse was implanted with a HepG2-GFP tumor chunk (˜1 mm^3 in diameter) in the right lobe of the liver for tumor development or inoculated subcutaneously with H460-GFP tumor chunk (˜1 mm^3 in diameter). About 3-10 days later, whole mouse body scan was performed using FluorVivo Model-100 fluorescence imager (INDEC Biosystems, Inc., Los Altos, CA). Mice with similar fluorescent areas were selected and randomly grouped. Both cell lines expressed high level of AKR1C3. Prodrug 3424 was dosed intravenously (IV) at 1.25, 2.5 mg/kg or 5 mg/kg Q7D×2 for the HepG2 orthotopic model or at 0.625, 1.25 or 2.5 mg/kg for the H460 xenograft model with a regimen of Q7D×2, 1 week off, then Q7D×2 again. Sorafenib was used as the positive control in the HepG2 model and was dosed orally at 30 mg/kg with a regimen of QD×5×7 cycles. Taxol was used as the positive control in the H460 model and was administered at 15 mg/kg IV with a regimen of BIW×4. During the experiments, mice were observed daily and body weight was measured twice a week. Tumor burden was monitored twice a week either by caliper measurement (H460) or FluorVivo fluorescence imager (H460-GFP and HepG2-GFP).

[4] = tested on: A498 xenograft
Experimental: (§2) Death and observed clinical signs were recorded on the basis of the numbers of animals within each subset.

[5] = tested on: SNU-16 xenograft; conditions: 5-FU 30 mg/kg IP twice a week
Experimental: as §2

[6] = tested on: H460 cells; assay: Comet assay for DNA cross-linking; type: cell-based, human
Experimental: After seeding cells for 24 hours, the test articles were added at the indicated concentrations and incubated for 2 hours. Cells were washed twice to remove compound completely. 20 μmol/L of bleomycin was added and incubated for 1 hour under air to induce DNA strand breaks following 2 h cell resting. After washing twice with PBS, comet assay was conducted using a single-cell electrophoresis system from Trevigen (Gaithersburg, MD). The data were analyzed using Comet Assay IV software from Perceptive Instruments (29).
To evaluate whether 3424 cross-linked DNA, a direct biochemical assay for DNA cross-linking, the single-cell electrophoresis-based comet assay was employed using H460 cells. In this assay, the racemic mixture, 2870, was used. […] Bleomycin was used to induce DNA strand breaks which was evident by increased tail moment to 35. 2870-induced DNA cross-linking was tested using three concentrations under identical conditions that were used for bleomycin. Compound 2870-induced concentration-dependent DNA-crosslinking was evident by a decreased tail moment from 36 to 1.6.

[7] = tested on: H460 subcutaneous xenograft; type: in vivo, mice; conditions: paclitaxel 15 mg/kg IV BIW×4
Experimental: as §1

Q: How did the Kcat [1] turn out when `C[C@@H](OP(=O)(N1CC1)N1CC1)c1ccc([N+](=O)[O-])c(Oc2cccc(C(=O)N(C)C)c2)c1` [Compound 3423, (R)-1-(3-(3-N,N-dimethylaminocarbonyl)phenoxyl-4-mtrophenyl)-1-ethyl-N,N′-bis(ethylene)phosphoramidate] was run?
A: 0.012 ± 0.00067 s⁻¹

Q: And the Km ([1]; read-out: Km)?
A: 12.9 ± 1.71 µM

Q: What about the IC50 [2] of the same compound?
A: 5 nM

Q: For `CNC(=O)c1cc(Oc2ccc(NC(=O)Nc3ccc(Cl)c(C(F)(F)F)c3)cc2)ccn1` [Sorafenib, reference compound], which “tumor growth reduction (TGI)” value [3] is on record?
A: 52.1%

Q: How did the Kcat [1] turn out when `C[C@]12CCC(=O)C[C@@H]1CC[C@@H]1[C@@H]2CC[C@]2(C)[C@@H](O)CC[C@@H]12` [5^α-DHT, dihydrotestosterone, reference compound] was run?
A: 0.002 ± 0 s⁻¹

Q: What about the Km [1] of the same compound?
A: 10.2 ± 0.62 µM

Q: Which TGI ([4]; gemcitabine 80 mg/kg weekly IP for 4 doses) does the source give for `Nc1ccn([C@@H]2O[C@H](CO)[C@@H](O)C2(F)F)c(=O)n1` [gemcitabine, reference compound] here?
A: 19%

Q: How did the anti-tumor activity [5] turn out when `O=c1[nH]cc(F)c(=O)[nH]1` [Compound 5-FU, 5-fluorouracil, reference compound] was run?
A: no anti-tumor activity

Q: Which tail moment ([6]; bleomycin used to induce DNA strand breaks (20 μmol/L, 1 hour)) does the source give for bleomycin [reference compound] here?
A: 35

Q: With `C[C@]12CCC(=O)C=C1CC[C@@H]1[C@@H]2CC[C@]2(C)C(=O)CC[C@@H]12` [4-Androstenedione, 4-androstenedione, reference compound] as the compound, how does the Kcat [1] read?
A: 0.0012 ± 0.00017 s⁻¹

Q: And the Km [1]?
A: 1.98 ± 0.43 µM

Q: How did the TGI ([4]; sunitinib 25 mg/kg daily oral gavage) turn out when `CCN(CC)CCNC(=O)c1c(C)[nH]c(/C=C2\C(=O)Nc3ccc(F)cc32)c1C` [sunitinib, reference compound] was run?
A: 52%

Q: `CC(OP(=O)(N1CC1)N1CC1)c1ccc([N+](=O)[O-])c(Oc2cccc(C(=O)N(C)C)c2)c1` (racemic) [Compound 2870, 1-(3-(3-N,N-dimethylaminocarbonyl)phenoxyl-4-mtrophenyl)-1-ethyl-N,N′-bis(ethylene)phosphoramidate] was tested. Which tail moment ([6]; 2870 at three concentrations, 2 hours, then bleomycin, decreased from 36, concentration-dependent DNA cross-linking) did it give?
A: 1.6

Q: What about the IC50 [2] of the same compound?
A: 4 nM

Q: For `CC(=O)O[C@H]1C(=O)[C@@]2(C)[C@H]([C@H](OC(=O)c3ccccc3)[C@]3(O)C[C@H](OC(=O)[C@H](O)[C@@H](NC(=O)c4ccccc4)c4ccccc4)C(C)=C1C3(C)C)[C@]1(OC(C)=O)CO[C@@H]1C[C@@H]2O` [paclitaxel, reference compound], which TGI [7] is on record?
A: 64%
